The values that follow come from patent publication US5439933A (priority 1993, dated 1995).

Values after ≈ are worked out from the molar mass of the structure shown. Like-named read-outs stand apart in the source and are kept apart here. Starred links: 1 amine or outer side, 2 acyl side, 3 side chain; linkers in the order of their positions; H or OH if unused. Positions of bridges follow the written chain, without caps; N, C: chain ends. Non-standard residues stand in square brackets, D forms with d. Residues, ends and D or L forms follow the SMILES beside them. Chains are numbered I, II in the order given. Actinocin(9to1) = Cc1c2oc3c(C)ccc(C(=O)[*:1])c3nc-2c(C(=O)[*:2])c(N)c1=O; NMeV = CN[C@H](C(=O)O)C(C)C; Sar = CNCC(=O)O

Assay [1] relates to SKVLB (multi-drug resistant subline of SKOV3). Nature of the assay: cells. Format: cell-based, Human. Conditions: for resistance of the multi-drug resistant cell line / IC50: SKVLB; for IC50: Homo sapiens, 48 hours, read-out: IC50 SKVLB; for IC50 / Fold-Resistance: Table 7; for Fold-Resistance: SKVLB vs SKOV3, 2880 min.
For assay [2], the system named is Human ovarian carcinoma cells (SKOV3). In words: cells. In kind it is cell-based. The following applies: SK-OV-3, Table 7, SKOV3, 48 hours, read-out: IC50 SKOV3. On the procedure: Human ovarian carcinoma cells (SKOV3) and a subline made multi-drug resistant by slowly increasing vinblastine in the culture medium over the course of many passages (SKVLB) were grown in Earle's basal medium (BME) containing 10% fetal calf serum. The SKVLB cells were maintained in the presence of 1 µg/mL vinblastine. The multi-drug resistant cell line is resistant to adriamycin, vinblastine, actinomycin D, and colchicine.
Cell proliferation was estimated by measurement of protein content of the cultured cells, as described by Skehan et al. (1990). Cells were plated into 24-well plates at approximately 10% confluency in BME and were allowed to attach and recover for at least 24 hours. The cells were then treated with the scytophycins or appropriate control for 48 hours. After the incubation, the medium was removed from each well and cells fixed by addition of 10% (w/v) trichloroacetic acid (TCA) (4° C.). The cells were incubated at 4° C. for one hour and then washed five times with water to remove TCA. The TCA-fixed cells were then stained for 30 minutes with 0.4% (w/v) sulforhodamine B prepared in 1% acetic acid. Following the staining, the cell layers were washed four times with 1% acetic acid. The cell layer was dissolved in 10 mM unbuffered tris-hydroxymethylaminomethane base. Absorbance of the solution was determined at 564 nm. Antiproliferative activity is manifested as decreased production of cellular protein.

The test system of assay [3] is L1210 murine leukemia cells. In words: Cell proliferation assay (cell counts), L1210. Format: cell-based. The following applies: Mus musculus; Table 6; L1210; read-out: IC50 L1210. On the procedure:
(§1) Tolytoxin and the other new scytophycin compounds are potent anticancer and antifungal agents. The cytotoxicity of tolytoxin and other new scytophycin compounds was determined using a cell proliferation assay, which tested the effect of the compounds on increases in cell numbers.
(§2) Cell lines were grown in plastic dishes (Falcon) in Eagle's basal medium supplemented with 5% newborn calf serum (KB), Fisher's medium supplemented with 10% horse serum (L1210), Dulbecco's modified Eagle's medium supplemented with 5% heat-inactivated fetal calf serum (LoVo), minimal essential medium supplemented with 2% heat-inactivated chicken serum (HEp-2), RPMI-1640 supplemented with 10% heat-inactivated fetal calf serum (T-47D, COLO-201) or 20% heat-inactivated fetal calf serum (HL-60, KATO-III), or McCoy's 5A supplemented with 10% heat-inactivated fetal calf serum (HBL-100). All cell culture media were supplemented with 50 μg/ml gentamycin sulfate. The cultures were incubated at 37° C. in a humidified atmosphere containing 5% carbon dioxide.
(§3) Cultures were exposed to graded concentrations of tolytoxin and reincubated for 72 hours in the presence of tolytoxin. Three dishes were used for each treatment. Cell numbers were determined by hemacytometer counts. The IC50 for each cell line was determined by plotting the logarithm of the tolytoxin concentration versus growth (cell number as a percentage of the control) of the treated cells.
(§4) The other new scytophycin compounds are also potent cytotoxins. For example, the IC50 of the scytophycins against KB human epidermoid carcinoma, LoVo human adenocarcinoma, and L1210 murine leukemia were determined using the cell proliferation assay described for tolytoxin.

For assay [4], the system named is LoVo human adenocarcinoma cells. In words: Cell proliferation assay (cell counts), LoVo. Conditions: Table 6, read-out: IC50 LoVo. In kind it is cell-based. On the procedure:
as §1, §2, §3, §4

Assay [5] concerns KB human epidermoid carcinoma cells. In words: Cell proliferation assay (cell counts), KB. The following applies: Table 6, KB, read-out: IC50 KB. In kind it is cell-based. On the procedure: as §1, §2, §3, §4
The next assay concerns Candida albicans A26. In words: Antifungal agar dilution. Format: cell-based. On the procedure: (§5) The new scytophycins are also useful as antifungal agents. Antimicrobial activity was determined by the agar dilution method. Tolytoxin was dissolved in 95% ethanol for addition to cooled, molten agar. Nystatin was solubilized in DMSO and diluted in distilled water. Appropriate solvent controls were also prepared. Fungal cultures were grown on Saboraud dextrose agar. Assay plates were incubated for 48 hours post-inoculation. Yeasts and filamentous fungi were incubated at 25° C.
(§6) Activity was determined using the method described above for tolytoxin.

The test system of assay [6] is Phytophthora nicotianae H729. Nature of the assay: Antifungal agar dilution. Format: cell-based. Conditions: Phytophthora nicotianae H729. On the procedure:
as §5, §6
Background: Agar dilution tests growth on a series of plates holding different concentrations.

A further assay deals with Saccharomyces cerevisae. In words: Antifungal agar dilution. Format: cell-based. Conditions: Saccharomyces cerevisae; for IC50: Table 9. On the procedure:
as §5, §6

In a further assay the test system is Sclerotium rofsii 2133. Nature of the assay: Antifungal agar dilution. Format: cell-based. Conditions: Sclerotium rofsii 2133. On the procedure:
as §5, §6

Assay [7] relates to Thielaviopsis paradoxa 1215. In words: Antifungal agar dilution. Format: cell-based. The following applies: Thielaviopsis paradoxa 1215; for IC50: Table 9. On the procedure:
as §5, §6

Assay [8] has as its system Alternaria alternata 1715. Nature of the assay: Antifungal agar dilution. In kind it is cell-based. The following applies: Table 8; Alternaria alternata 1715; 48 hours. On the procedure: as §5
The next assay deals with Aspergillus oryzae. Nature of the assay: Antifungal agar dilution. Format: cell-based. The following applies: Table 8, 48 hours. On the procedure: as §5
The test system of the next assay is Bipolaris incurvata 2118. Nature of the assay: Antifungal agar dilution. The following applies: Table 8; Bipolaris incurvata 2118; 48 hours. In kind it is cell-based. On the procedure: as §5
In assay [9] the test system is Calonectria critalarae 1809. Nature of the assay: Antifungal agar dilution. Format: cell-based. The following applies: Table 8; Calonectria critalarae 1809; 48 hours. On the procedure:
as §5

Assay [10] relates to Colletotrichum coccodes 1809. Nature of the assay: Antifungal agar dilution. Format: cell-based. The following applies: Table 8; Colletotrichum coccodes 1809; 48 hours. On the procedure: as §5
A further assay deals with Penicillium notatum. In words: Antifungal agar dilution. The following applies: Table 8; Penicillium notatum; 48 hours. Format: cell-based. On the procedure:
as §5

Assay [11] has as its system Phyllosticta capitalensis 689-5. In words: Antifungal agar dilution. Format: cell-based. Conditions: Table 8; Phyllosticta capitalensis 689-5; 48 hours. On the procedure:
as §5

The test system of another assay is Rhizoctonia solani 1165. In words: Antifungal agar dilution. Format: cell-based. The following applies: Table 8; Rhizoctonia solani 1165; 48 hours. On the procedure:
as §5

Assay [12] has as its system Trichophyton mentagrophytes A23. In words: Antifungal agar dilution. Format: cell-based. Conditions: Table 8; Trichophyton mentagrophytes A23; 48 hours. On the procedure:
as §5

The subject of another assay is actin microfilaments. The following applies: by binding to the end unit of growing actin microfilaments; cited from earlier work.
A further assay concerns cellular sugar uptake. The following applies: side effect; cited from earlier work.
The mark [13] stands for this setting: Table 9, Candida albicans A26, read-out: IC50.

On to `Cc1c2oc3c(C)ccc(C(=O)N[C@@H]4C(=O)N[C@H](C(C)C)C(=O)N5CCC[C@H]5C(=O)N(C)CC(=O)N(C)[C@@H](C(C)C)C(=O)O[C@@H]4C)c3nc-2c(C(=O)N[C@@H]2C(=O)N[C@H](C(C)C)C(=O)N3CCC[C@H]3C(=O)N(C)CC(=O)N(C)[C@@H](C(C)C)C(=O)O[C@@H]2C)c(N)c1=O` [actinomycin D] (I: T[dV]P[Sar][NMeV] / II: T[dV]P[Sar][NMeV]; ester I:1-I:C, II:1-II:C; linker I:N-II:N via Actinocin(9to1)), for which, in assay [1], the “resistance of the multi-drug resistant cell line” value was “resistant”.

In general, IC50 refers to the concentration that inhibits the measured activity by half. `COc1cccc2c1C(=O)c1c(O)c3c(c(O)c1C2=O)C[C@@](O)(C(=O)CO)C[C@@H]3O[C@H]1C[C@H](N)[C@H](O)[C@H](C)O1` [Adriamycin]: the IC50 in assay [2] worked out at 400 nM. In addition, in [1], the IC50 is over 100000 nM, the “resistance of the multi-drug resistant cell line” value is reported as “resistant” and the Fold-Resistance is over 250.

`COC1CC2CC=CC(CC(O)C/C=C(C)/C=C/C(=O)OC(C(C)C(O)C(C)CCC(=O)C(C)C(OC)C(C)/C=C/N(C)C=O)C(C)C(O)CC(OC)C1C)O2` (centres unmarked) [19-O-demethylscytophycin C]: the IC50 was determined as 12.5 nM in assay [3]; 2.9 nM in assay [4]; 9.2 nM in [5]; 25 nM in assay [2]; 25 nM in assay [1]; 64 nM with Saccharomyces cerevisae. In [7], this compound gave an IC50 of 16 nM. Also, the Fold-Resistance in [1] is reported as 1. Further, the MIC with Candida albicans A26 (setting [13]) amounted to 128 nM (≈ 101 ng/mL); in [6] (Table 9, read-out: IC50) it was 8 nM (≈ 6.34 ng/mL); in the assay on Sclerotium rofsii 2133 (Table 9, read-out: IC50) it was 4 nM (≈ 3.17 ng/mL).

For `COC1CC2C=CCC(CC(OC)C(CO)C(OC)CC(OC)C(C)C(C(C)C(O)C(C)CCC(=O)C(C)C(OC)C(C)/C=C/N(C)C=O)OC(=O)/C=C/C(C)=C/C1O)O2` (centres unmarked) [6-Hydroxy-7-O-methylscytophycin E, 6-hydroxy-7-O-methylscytophycin E], the IC50 in [3] stood at 6.6 nM; in assay [4], 8 nM; in [5] it was 12 nM; in [2], 100 nM; in assay [1], 300 nM; with Saccharomyces cerevisae, 64 nM. In assay [7], this compound showed an IC50 of 32 nM. Besides, in assay [1], the Fold-Resistance is 3. The MIC in the assay with Candida albicans A26 (setting [13]) turned out to be 64 nM (≈ 54.5 ng/mL); in assay [6] (Table 9, read-out: IC50), 16 nM (≈ 13.6 ng/mL); with Sclerotium rofsii 2133 (Table 9, read-out: IC50), 16 nM (≈ 13.6 ng/mL).

Regarding `COC1CC(OC)C2(CO2)C(OC)CC2CC=CC(CC(O)C(O)/C=C(C)/C=C/C(=O)OC(C(C)C(O)C(C)CCC(=O)C(C)C(OC)C(C)/C=C/N(C)C=O)C1C)O2` (centres unmarked) [6-Hydroxyscytophycin B], the IC50 in [3] was found to be 11 nM; in [4], 8.2 nM; in assay [5], 3.6 nM; in [2], 50 nM; in assay [1] it was 150 nM; in the assay with Saccharomyces cerevisae, 100 nM. In assay [7], this compound returned a concentration for half-maximal inhibition (IC50) of 32 nM. Besides, the Fold-Resistance in assay [1] is given as 3. For the same compound, the MIC in the assay on Candida albicans A26 (setting [13]) is 200 nM (≈ 167 ng/mL); in [6] (Table 9, read-out: IC50), 64 nM (≈ 53.5 ng/mL); in the assay on Sclerotium rofsii 2133 (Table 9, read-out: IC50) it was 16 nM (≈ 13.4 ng/mL).

For `CC[C@]1(O)C[C@@H]2CN(CCc3c([nH]c4ccccc34)[C@@](C(=O)OC)(c3cc4c(cc3OC)N(C)[C@H]3[C@@](O)(C(=O)OC)[C@H](OC(C)=O)[C@]5(CC)C=CCN6CC[C@]43[C@@H]65)C2)C1` [Vinblastine], the IC50 in assay [2] was 1 nM. In assay [1], the IC50 came to 10000 nM, the “resistance of the multi-drug resistant cell line” value is recorded as “resistant” and the Fold-Resistance is recorded as 10,000.

As for `C[C@@H]1[C@H](O)[C@@H](C)/C=C/C=C/CC/C=C/C=C/C=C/C=C/C(O[C@H]2O[C@H](C)[C@@H](O)[C@H](N)[C@@H]2O)CC2O[C@](O)(CC(O)C(O)CCC(O)CC(O)CC(O)CC(=O)O[C@H]1C)CC(O)C2C(=O)O` (some centres unmarked) [Nystatin, reference compound], the MIC in assay [8] turned out to be 0.5 nM (≈ 0.463 ng/mL); in the assay with Aspergillus oryzae it was 0.5 nM (≈ 0.463 ng/mL); with Bipolaris incurvata 2118, 0.25 nM (≈ 0.232 ng/mL); in assay [9] it was 0.25 nM (≈ 0.232 ng/mL); in assay [10], 0.25 nM (≈ 0.232 ng/mL); with Penicillium notatum it was 0.125 nM (≈ 0.116 ng/mL). In addition, the MIC was found to be 0.125 nM (≈ 0.116 ng/mL) in assay [11]; 0.0625 nM (≈ 0.0579 ng/mL) against Rhizoctonia solani 1165; 0.5 nM (≈ 0.463 ng/mL) in assay [12]; 1 nM (≈ 0.926 ng/mL) against Candida albicans A26 (Table 8, Candids albicans A26, 48 hours); 1 nM (≈ 0.926 ng/mL) in assay [6] (Table 8, 48 hours); 1 nM (≈ 0.926 ng/mL) against Saccharomyces cerevisae (Table 8, 48 hours). The MIC against Sclerotium rofsii 2133 (Table 8, 48 hours) amounted to 0.125 nM (≈ 0.116 ng/mL); in [7] (Table 8, 48 hours), 0.5 nM (≈ 0.463 ng/mL).

For `COc1cc2c(c(OC)c1OC)-c1ccc(OC)c(=O)cc1[C@@H](NC(C)=O)CC2` [colchicine], the “resistance of the multi-drug resistant cell line” value in [1] is given as “resistant”.

As for `C=C1C(C)C2C(Cc3ccccc3)NC(=O)C23OC(=O)C=CC(O)CCCC(C)CC=CC3C1O` (centres unmarked) [Cytochalasin B], in [2], the IC50 was found to be 5000 nM. In [1], the IC50 is 30000 nM and the Fold-Resistance came to 6. Further, the microfilament formation result in the assay with actin microfilaments is on record as “inhibit microfilament formation”. In addition, the cellular sugar uptake entry in the assay on cellular sugar uptake is “inhibits cellular sugar uptake”.
